Measured values published in the supplement of paper PMC6045584.
± gives the standard deviation of the averaged measurements.

Experiments:
[1] = compound: CS(=O)(=O)CCNCc1ccc(-c2ccc3ncnc(Nc4ccc(OCc5cccc(F)c5)c(Cl)c4)c3c2)o1 [LAPATINIB]; experiment: surviving fraction relative to DMSO-only wells; higher = less growth inhibition; details: exposure time: 5 days
How it was run: (§1)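 Inhibitors were tested at 0.5, 1, 5, 10, 50, 100, 500 and 1000 nM, applied continuously for five days beginning 24 hours after log-phase tumour cells were seeded at 250–500 per well in 384-well plates. CellTiter-Glo luminescence served as the viability measure, expressed as surviving fraction against the median of DMSO-only wells. Each line, screened three times, was kept only with replicate Pearson r >0.7 and median Z' >0.3.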

[2] = compound: Oc1ccc(/C=C/c2cc(O)cc(O)c2)cc1 [RESVERATROL]; experiment: as above; details: exposure time: 5 days
How it was run: as §1

Test System | surviving fraction ([1]; 0.5 nM) | surviving fraction ([1]; 1 nM) | surviving fraction ([1]; 5 nM) | surviving fraction ([1]; 10 nM) | surviving fraction ([1]; 50 nM) | surviving fraction ([1]; 100 nM) | surviving fraction ([1]; 500 nM) | surviving fraction ([1]; 1000 nM) | surviving fraction ([2]; 0.5 nM) | surviving fraction ([2]; 1 nM) | surviving fraction ([2]; 5 nM) | surviving fraction ([2]; 10 nM) | surviving fraction ([2]; 50 nM) | surviving fraction ([2]; 100 nM) | surviving fraction ([2]; 500 nM) | surviving fraction ([2]; 1000 nM)
HCC1395 BREAST | 0.928 ± 0.083 | 0.972 ± 0.072 | 0.998 ± 0.082 | 0.975 ± 0.16 | 0.919 ± 0.12 | 1.09 ± 0.061 | 1.02 ± 0.083 | 0.993 ± 0.15 | 0.968 ± 0.099 | 1.07 ± 0.075 | 1.1 ± 0.069 | 1.28 ± 0.16 | 1.02 ± 0.094 | 1.21 ± 0.1 | 1.05 ± 0.09 | 0.985 ± 0.15
HCC1806 BREAST | 1.01 ± 0.083 | 1.12 ± 0.028 | 1.09 ± 0.04 | 1.09 ± 0.079 | 0.992 ± 0.018 | 1.11 ± 0.033 | 0.715 ± 0.025 | 0.65 ± 0.082 | 1.04 ± 0.073 | 1.04 ± 0.072 | 1.18 ± 0.14 | 1.18 ± 0.051 | 1.24 ± 0.049 | 1.23 ± 0.044 | 0.963 ± 0.029 | 0.963 ± 0.19
HCC1954 BREAST | 0.905 ± 0.087 | 1.08 ± 0.058 | 1.04 ± 0.023 | 1.01 ± 0.12 | 0.823 ± 0.037 | 0.804 ± 0.092 | 0.387 ± 0.016 | 0.387 ± 0.039 | 1.06 ± 0.055 | 1.12 ± 0.012 | 1.21 ± 0.065 | 1.39 ± 0.098 | 1.03 ± 0.025 | 1.25 ± 0.19 | 0.997 ± 0.065 | 0.934 ± 0.064
HCT15 LARGE INTESTINE | 1.01 ± 0.082 | 1.12 ± 0.098 | 1.04 ± 0.059 | 1.06 ± 0.076 | 0.988 ± 0.078 | 1.08 ± 0.07 | 1.04 ± 0.032 | 1.05 ± 0.071 | 0.982 ± 0.12 | 1.03 ± 0.12 | 1.02 ± 0.1 | 1.02 ± 0.093 | 1.05 ± 0.08 | 1.06 ± 0.095 | 0.968 ± 0.15 | 1.08 ± 0.11
HELA CERVIX | 1.08 ± 0.1 | 1.23 ± 0.065 | 1.05 ± 0.043 | 1.04 ± 0.038 | 1.1 ± 0.029 | 1.15 ± 0.12 | 1.16 ± 0.09 | 1.16 ± 0.037 | 1.04 ± 0.034 | 1.12 ± 0.036 | 1.06 ± 0.096 | 1.08 ± 0.023 | 1.09 ± 0.066 | 1.12 ± 0.037 | 1.12 ± 0.092 | 1.21 ± 0.066
HOS BONE | 1.017 ± 0.01 | 1.082 ± 0.01 | 1.059 ± 0.01 | 1.03 ± 0.011 | 1.05 ± 0.023 | 1.05 ± 0.034 | 1.039 ± 0.0051 | 1.04 ± 0.018 | 1.016 ± 0.0053 | 1.05 ± 0.03 | 1.018 ± 0.009 | 1.02 ± 0.021 | 1.03 ± 0.012 | 1.06 ± 0.036 | 1.05 ± 0.024 | 1.07 ± 0.025
HOSMNG BONE | 0.92 ± 0.06 | 1.04 ± 0.05 | 0.88 ± 0.081 | 0.827 ± 0.12 | 0.848 ± 0.064 | 0.867 ± 0.11 | 0.89 ± 0.084 | 1.06 ± 0.08 | 0.83 ± 0.15 | 0.872 ± 0.023 | 0.832 ± 0.1 | 0.722 ± 0.061 | 0.827 ± 0.11 | 0.877 ± 0.11 | 0.878 ± 0.072 | 0.924 ± 0.1
HSSYII SYNOVIAL | 0.98 ± 0.042 | 0.943 ± 0.022 | 0.947 ± 0.051 | 0.973 ± 0.033 | 0.947 ± 0.064 | 1.04 ± 0.087 | 0.969 ± 0.034 | 0.927 ± 0.01 | 0.951 ± 0.067 | 1.01 ± 0.029 | 1.01 ± 0.015 | 0.995 ± 0.016 | 0.967 ± 0.04 | 0.971 ± 0.079 | 0.9 ± 0.03 | 0.917 ± 0.043
HT1080 SOFT TISSUE | 0.997 ± 0.044 | 1.06 ± 0.013 | 1.02 ± 0.017 | 1.05 ± 0.016 | 1.04 ± 0.016 | 1.02 ± 0.048 | 1.01 ± 0.021 | 1.05 ± 0.076 | 1.03 ± 0.031 | 1.03 ± 0.019 | 0.995 ± 0.024 | 1.04 ± 0.033 | 0.984 ± 0.017 | 1.03 ± 0.03 | 1.05 ± 0.013 | 1.1 ± 0.015
HU09 BONE | 0.937 ± 0.082 | 0.937 ± 0.031 | 1.04 ± 0.1 | 1.04 ± 0.089 | 1 ± 0.056 | 1.04 ± 0.13 | 0.891 ± 0.043 | 0.798 ± 0.021 | 0.972 ± 0.079 | 1.08 ± 0.1 | 1.13 ± 0.1 | 1.07 ± 0.077 | 1.11 ± 0.15 | 1.1 ± 0.079 | 1.05 ± 0.12 | 1.06 ± 0.038
